Measurements reported in patent US8604195B2, “Substituted bicyclic piperidinyl- and piperazinyl-sulfonamides useful to inhibit 11β-hydroxysteroid dehydrogenase type-1” (Merck Sharp & Dohme Corp., priority 2007, dated 2013).

Tests used:
Mouse 11-β-HSD1 = Mouse 11-β-HSD1 (Mus musculus, UniProt P50172); assay: 11β-HSD1 enzymatic activity, 3H-cortisone SPA, mouse enzyme; settings: Mouse 11-β-HSD1 IC50 (nM), membrane, 125 nM 3H-cortisone, 1 hr room temperature
Experimental: (§1) The reaction was incubated at room temperature for 1 hr before it was stopped by addition of 50 μM buffer containing 20 mM NaPO4 pH 7.5, 30 μM 18β-glycyrrhetinic acid, 1 μg/ml monoclonal anti-cortisol antibody (Biosource) and 2 mg/ml anti-mouse antibody coated scintillation proximity assay (SPA) beads (Amersham Bioscience). The mixture was incubated at room temperature for 2 hrs with vigorous shaking and analyzed on TopCount scintillation counter.

Human 11-β-HSD1 = Human 11-β-HSD1 (Homo sapiens, UniProt P28845); assay: 11β-HSD1 enzymatic activity, 3H-cortisone SPA, human enzyme; settings: Human 11-β-HSD1 IC50 (nM), membrane, 125 nM 3H-cortisone, 1 hr room temperature
Sequence of Human 11-β-HSD1 (P28845 whole entry): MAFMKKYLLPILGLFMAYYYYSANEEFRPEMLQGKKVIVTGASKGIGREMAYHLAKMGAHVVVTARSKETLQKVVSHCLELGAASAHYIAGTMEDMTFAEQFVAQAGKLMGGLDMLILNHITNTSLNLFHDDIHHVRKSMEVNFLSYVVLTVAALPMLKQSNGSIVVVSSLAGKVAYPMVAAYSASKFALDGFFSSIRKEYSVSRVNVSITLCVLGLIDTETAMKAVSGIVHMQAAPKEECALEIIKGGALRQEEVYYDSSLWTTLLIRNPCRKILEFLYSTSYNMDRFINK
Experimental: as §1

Sequence of Mouse 11-β-HSD1 (P50172 whole entry): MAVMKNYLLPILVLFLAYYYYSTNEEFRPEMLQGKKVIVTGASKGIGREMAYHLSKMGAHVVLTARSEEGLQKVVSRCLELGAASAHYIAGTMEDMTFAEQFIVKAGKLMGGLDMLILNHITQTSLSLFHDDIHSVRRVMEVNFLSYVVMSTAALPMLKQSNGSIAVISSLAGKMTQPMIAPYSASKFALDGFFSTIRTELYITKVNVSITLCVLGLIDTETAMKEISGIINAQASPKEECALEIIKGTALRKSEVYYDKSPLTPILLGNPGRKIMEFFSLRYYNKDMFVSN

CC(C)(C)c1ccc(S(=O)(=O)N2C3CCC2CC(Oc2ccc(C#N)cn2)C3)cc1 (single isomer, unassigned) [Compound 5]
IC50 (Mouse 11-β-HSD1): 23800 nM
IC50 (Human 11-β-HSD1): > 10000 nM

CC(C)(C)c1ccc(S(=O)(=O)N2C3CCC2CC(Oc2ccc(C#N)cn2)C3)cc1 (single isomer, unassigned) [Compound 6]
IC50 (Mouse 11-β-HSD1): 5590 nM
IC50 (Human 11-β-HSD1): 413 nM

CC(C)(C)c1ccc(S(=O)(=O)N2C3CCC2CC(O)(Cc2ccccc2)C3)cc1 (stereo not drawn) [Compound 15]
IC50 (Mouse 11-β-HSD1): 114 nM
IC50 (Human 11-β-HSD1): 740 nM

CC(C)(C)c1ccc(S(=O)(=O)N2C3CCC2CC(O)(c2ccccc2)C3)cc1 (stereo not drawn) [Compound 16]
IC50 (Mouse 11-β-HSD1): 138 nM

CCC(C)(C)c1ccc(S(=O)(=O)N2C[C@@H]3C[C@H]2CN3C)cc1 [Compound 21]
IC50 (Mouse 11-β-HSD1): 258 nM
IC50 (Human 11-β-HSD1): 333 nM
